Assay [1] concerns Monocotyledonous and dicotyledonous test plants. Nature of the assay: Herbicidal action prior to emergence of the plants (pre-emergence action), Example B1. It is filed as in vivo. The conditions noted are these: preemergence application, 250 g/ha, evaluated after 4 weeks, 100%=total damage, 0%=no damage. The procedure:
(§1) Monocotyledonous and dicotyledonous test plants are sown in seed trays in standard soil. Immediately after sowing, the test compounds are applied by spraying in the form of an aqueous suspension (prepared from a wettable powder (Example F3, b) according to WO 97/34485) or in the form of an emulsion (prepared from an emulsifiable concentrate (Example F1, c) according to WO 97/34485) in a concentration of 250 g/ha. The test plants are then grown in a greenhouse under optimum conditions. After a 4-week test period, the test is evaluated (100%=total damage to plant; 0%=no damage to plant; NC not evaluated).

Assay [2] shares this test system. The assay is described as follows: Herbicidal action after emergence of the plants (post-emergence herbicidal action), Example B2. It is filed as in vivo. The conditions noted are these: postemergent application, 125 g/ha, 2- to 3-leaf stage, evaluated after 2-3 weeks, 100%=total damage. The method, then:
as §1, with “When the test plants are at the 2- to 3-leaf stage,” for “Immediately after sowing,”, “125” for “250”, “grown on” for “grown”, “2- to 3-week” for “4-week”, “plant).” for “plant; NC not evaluated).”

The record followed here is patent publication US20100035756A1, “TRIAZOLOPHYRIDINE DERIVATIVES AS HERBICIDES” (SYNGENTA LIMITED, priority 2006, published 2010).

Regarding `O=C(C1=C(O)C2CCC(C2)C1=O)c1ccc(C(F)(F)F)n2nc(Cl)nc12` (centres unmarked) [2.2], in assay [1], the “herbicidal damage, ABUTH” value worked out at 50%; the “herbicidal damage, AMARE” value was determined as 70%; the “herbicidal damage, BRAPL” value was determined as 50%; the “herbicidal damage, DIGSA” value is 50%. Also, in assay [1], the “herbicidal damage, ECHCG” value was 70%; the “herbicidal damage, SETFA” value was determined as 10%; the “herbicidal damage, STEME” value worked out at 0%; the “herbicidal damage, VERPE” value was determined as 60%. In assay [2], the “herbicidal damage, ABUTH” value is 40%; the “herbicidal damage, AMARE” value came out at 80%; the “herbicidal damage, CHEAL” value was found to be 80%; the “herbicidal damage, DIGSA” value is listed as 90%. Moreover, in assay [2], the “herbicidal damage, SETFA” value was found to be 80%; the “herbicidal damage, SINAR” value was 70%; the “herbicidal damage, VERPE” value amounted to 70%; the “herbicidal damage, XANST” value came to 60%.
For the compound `Cc1nc2c(C(=O)C3=C(O)C4CCC(C4)C3=O)ccc(C(F)(F)F)n2n1` (centres unmarked) [2.4], in assay [1], the “herbicidal damage, ABUTH” value amounted to 70%; the “herbicidal damage, AMARE” value came out at 60%; the “herbicidal damage, BRAPL” value came out at 10%; the “herbicidal damage, DIGSA” value is 30%. In addition, in assay [1], the “herbicidal damage, SETFA” value came out at 20%; the “herbicidal damage, STEME” value came to 60%; the “herbicidal damage, VERPE” value is recorded as 10%. Also, in assay [2], the “herbicidal damage, ABUTH” value came out at 80%; the “herbicidal damage, AMARE” value is 80%; the “herbicidal damage, CHEAL” value came to 80%; the “herbicidal damage, DIGSA” value is 70%. Besides, in assay [2], the “herbicidal damage, SETFA” value came out at 70%; the “herbicidal damage, SINAR” value came to 80%; the “herbicidal damage, VERPE” value was determined as 30%; the “herbicidal damage, XANST” value is given as 80%.
On to `CC(C)c1nc2c(C(=O)C3=C(O)C4CCC(C4)C3=O)ccc(C(F)(F)F)n2n1` (centres unmarked) [2.7], for which, in assay [1], the “herbicidal damage, ABUTH” value stood at 30%; the “herbicidal damage, AMARE” value is 20%; the “herbicidal damage, BRAPL” value is on record as 0%; the “herbicidal damage, DIGSA” value amounted to 0%. In assay [1], the “herbicidal damage, ECHCG” value is given as 10%; the “herbicidal damage, SETFA” value stood at 0%; the “herbicidal damage, STEME” value is reported as 20%; the “herbicidal damage, VERPE” value is recorded as 50%. Besides, in assay [2], the “herbicidal damage, ABUTH” value came to 70%; the “herbicidal damage, CHEAL” value is on record as 70%; the “herbicidal damage, DIGSA” value was 20%; the “herbicidal damage, SETFA” value is reported as 20%. Besides, in assay [2], the “herbicidal damage, SINAR” value was 60%; the “herbicidal damage, VERPE” value is 10%; the “herbicidal damage, XANST” value is 70%.
As to `CCOc1nc2c(C(=O)C3=C(O)C4CCC(C4)C3=O)ccc(C(F)(F)F)n2n1` (centres unmarked) [2.209], in assay [1], the “herbicidal damage, ABUTH” value turned out to be 100%; the “herbicidal damage, AMARE” value was determined as 100%; the “herbicidal damage, BRAPL” value is 90%; the “herbicidal damage, DIGSA” value amounted to 80%. In assay [1], the “herbicidal damage, ECHCG” value is 70%; the “herbicidal damage, SETFA” value is given as 80%; the “herbicidal damage, STEME” value is on record as 70%; the “herbicidal damage, VERPE” value was 30%. Further, in assay [2], the “herbicidal damage, ABUTH” value turned out to be 80%; the “herbicidal damage, AMARE” value was 90%; the “herbicidal damage, CHEAL” value turned out to be 80%; the “herbicidal damage, DIGSA” value is 80%. Moreover, in assay [2], the “herbicidal damage, SETFA” value is 80%; the “herbicidal damage, SINAR” value stood at 80%; the “herbicidal damage, VERPE” value was 80%; the “herbicidal damage, XANST” value was found to be 80%.
As to `Cc1nc2c(C(=O)C3=C(O)C(C)(C)C(=O)C(C)(C)C3=O)ccc(C(F)(F)F)n2n1` [13.3], in assay [1], the “herbicidal damage, ABUTH” value is on record as 100%; the “herbicidal damage, AMARE” value came to 90%; the “herbicidal damage, BRAPL” value is 80%; the “herbicidal damage, DIGSA” value worked out at 80%. Further, in assay [1], the “herbicidal damage, ECHCG” value was determined as 30%; the “herbicidal damage, SETFA” value worked out at 70%; the “herbicidal damage, STEME” value is 100%; the “herbicidal damage, VERPE” value came to 100%. Also, in assay [2], the “herbicidal damage, ABUTH” value worked out at 80%; the “herbicidal damage, AMARE” value is given as 70%; the “herbicidal damage, CHEAL” value was determined as 50%; the “herbicidal damage, DIGSA” value is given as 60%. Besides, in assay [2], the “herbicidal damage, SETFA” value turned out to be 70%; the “herbicidal damage, SINAR” value is given as 80%; the “herbicidal damage, VERPE” value amounted to 70%; the “herbicidal damage, XANST” value worked out at 80%.
With `O=C(C1=C(O)C2CCC(C2)C1=O)c1ccc(C(F)(F)F)n2cnnc12` (centres unmarked) [Compound 1.1], in assay [1], the “herbicidal damage, ABUTH” value is 100%; the “herbicidal damage, BRAPL” value worked out at 30%; the “herbicidal damage, DIGSA” value is given as 70%; the “herbicidal damage, ECHCG” value is 0%. In assay [1], the “herbicidal damage, SETFA” value amounted to 30%; the “herbicidal damage, STEME” value is listed as 100%; the “herbicidal damage, VERPE” value turned out to be 60%. In assay [2], the “herbicidal damage, ABUTH” value came out at 80%; the “herbicidal damage, AMARE” value is reported as 80%; the “herbicidal damage, CHEAL” value is reported as 80%; the “herbicidal damage, DIGSA” value is given as 60%. Further, in assay [2], the “herbicidal damage, SETFA” value was found to be 80%; the “herbicidal damage, SINAR” value is reported as 90%; the “herbicidal damage, VERPE” value was 50%; the “herbicidal damage, XANST” value is recorded as 80%.
Take `O=C(C1=C(O)C2CCC(C2)C1=O)c1ccc(C(F)(F)F)n2c(Cl)nnc12` (centres unmarked) [Compound 1.2]: in assay [1], the “herbicidal damage, ABUTH” value was found to be 100%; the “herbicidal damage, AMARE” value turned out to be 100%; the “herbicidal damage, BRAPL” value is listed as 100%; the “herbicidal damage, DIGSA” value is 100%. Also, in assay [1], the “herbicidal damage, ECHCG” value turned out to be 100%; the “herbicidal damage, SETFA” value is 90%; the “herbicidal damage, VERPE” value stood at 70%. In assay [2], the “herbicidal damage, ABUTH” value is 90%; the “herbicidal damage, AMARE” value stood at 80%; the “herbicidal damage, CHEAL” value is reported as 80%; the “herbicidal damage, DIGSA” value was 90%. For the same compound, in assay [2], the “herbicidal damage, SETFA” value was 90%; the “herbicidal damage, SINAR” value was 70%; the “herbicidal damage, VERPE” value is 70%; the “herbicidal damage, XANST” value is 80%.
In the case of `CC(C)c1nnc2c(C(=O)C3=C(O)C4CCC(C4)C3=O)ccc(C(F)(F)F)n12` (centres unmarked) [Compound 1.7], in assay [1], the “herbicidal damage, ABUTH” value was determined as 100%; the “herbicidal damage, AMARE” value is 100%; the “herbicidal damage, BRAPL” value was 80%; the “herbicidal damage, DIGSA” value is recorded as 100%. Further, in assay [1], the “herbicidal damage, ECHCG” value came to 80%; the “herbicidal damage, SETFA” value was determined as 80%; the “herbicidal damage, STEME” value is 100%; the “herbicidal damage, VERPE” value was 100%. For the same compound, in assay [2], the “herbicidal damage, ABUTH” value is given as 90%; the “herbicidal damage, AMARE” value came out at 90%; the “herbicidal damage, CHEAL” value is 80%; the “herbicidal damage, DIGSA” value is reported as 80%. Moreover, in assay [2], the “herbicidal damage, SETFA” value is given as 70%; the “herbicidal damage, SINAR” value came out at 80%; the “herbicidal damage, VERPE” value worked out at 90%; the “herbicidal damage, XANST” value is 80%.
Consider `CC1(C)C(=O)C(C(=O)c2ccc(C(F)(F)F)n3c(Br)nnc23)=C(O)C(C)(C)C1=O` [Compound 5.2], for which, in assay [2], the “herbicidal damage, ABUTH” value was 90%; the “herbicidal damage, AMARE” value came out at 80%; the “herbicidal damage, CHEAL” value is given as 100%; the “herbicidal damage, DIGSA” value was 70%. In addition, in assay [2], the “herbicidal damage, SETFA” value worked out at 80%; the “herbicidal damage, SINAR” value is given as 90%; the “herbicidal damage, VERPE” value is on record as 90%; the “herbicidal damage, XANST” value amounted to 70%.
Regarding `Cc1nc2c(C(=O)C3=C(O)CCCC3=O)ccc(C(F)(F)F)n2n1` [Compound 11.3], in assay [1], the “herbicidal damage, ABUTH” value came out at 70%; the “herbicidal damage, AMARE” value was determined as 40%; the “herbicidal damage, BRAPL” value is recorded as 50%; the “herbicidal damage, DIGSA” value came to 30%. In assay [1], the “herbicidal damage, ECHCG” value is 0%; the “herbicidal damage, SETFA” value stood at 10%; the “herbicidal damage, STEME” value is 40%; the “herbicidal damage, VERPE” value was 40%.
